Laboratory results reported in ChEMBL document CHEMBL1687944, “Purification and inhibition studies with anions and sulfonamides of an α-carbonic anhydrase from the Antarctic seal Leptonychotes weddellii” (Bioorg Med Chem, 2011).

Each compound was assayed against Carbonic anhydrase 1 (Homo sapiens, UniProt P00915).
Sequence of Carbonic anhydrase 1 (P00915 whole entry): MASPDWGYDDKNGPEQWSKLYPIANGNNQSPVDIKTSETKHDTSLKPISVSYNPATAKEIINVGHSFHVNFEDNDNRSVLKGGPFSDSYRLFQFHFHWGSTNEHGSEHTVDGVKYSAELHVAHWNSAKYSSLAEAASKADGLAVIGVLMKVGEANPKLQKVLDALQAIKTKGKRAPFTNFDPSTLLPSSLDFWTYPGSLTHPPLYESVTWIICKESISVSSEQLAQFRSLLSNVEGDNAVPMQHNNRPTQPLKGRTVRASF

Row | SMILES | Ki [mM]
1 | O=S([O-])O.[Na+] [SODIUM BISULFITE] | 18
2 | O=[N+]([O-])[O-].[Na+] [SODIUM NITRATE] | 7
3 | [O-][Cl+3]([O-])([O-])O [SODIUM PERCHLORATE] | > 200
